Reference: ChEMBL document CHEMBL3414527, “Engineering potent and selective analogues of GpTx-1, a tarantula venom peptide antagonist of the Na(V)1.7 sodium channel” (J Med Chem, 2015)
Bridge positions count the residues as written; N and C are the ends. Peptide text beside a SMILES is read from it.

What was measured:
[1] = target: Sodium channel protein type 9 subunit alpha (Homo sapiens, UniProt Q15858); test: Inhibition of human NaV1.7 at -140 mV holding potential by whole-cell patch clamp assay
Chain of Sodium channel protein type 9 subunit alpha (Q15858 whole entry): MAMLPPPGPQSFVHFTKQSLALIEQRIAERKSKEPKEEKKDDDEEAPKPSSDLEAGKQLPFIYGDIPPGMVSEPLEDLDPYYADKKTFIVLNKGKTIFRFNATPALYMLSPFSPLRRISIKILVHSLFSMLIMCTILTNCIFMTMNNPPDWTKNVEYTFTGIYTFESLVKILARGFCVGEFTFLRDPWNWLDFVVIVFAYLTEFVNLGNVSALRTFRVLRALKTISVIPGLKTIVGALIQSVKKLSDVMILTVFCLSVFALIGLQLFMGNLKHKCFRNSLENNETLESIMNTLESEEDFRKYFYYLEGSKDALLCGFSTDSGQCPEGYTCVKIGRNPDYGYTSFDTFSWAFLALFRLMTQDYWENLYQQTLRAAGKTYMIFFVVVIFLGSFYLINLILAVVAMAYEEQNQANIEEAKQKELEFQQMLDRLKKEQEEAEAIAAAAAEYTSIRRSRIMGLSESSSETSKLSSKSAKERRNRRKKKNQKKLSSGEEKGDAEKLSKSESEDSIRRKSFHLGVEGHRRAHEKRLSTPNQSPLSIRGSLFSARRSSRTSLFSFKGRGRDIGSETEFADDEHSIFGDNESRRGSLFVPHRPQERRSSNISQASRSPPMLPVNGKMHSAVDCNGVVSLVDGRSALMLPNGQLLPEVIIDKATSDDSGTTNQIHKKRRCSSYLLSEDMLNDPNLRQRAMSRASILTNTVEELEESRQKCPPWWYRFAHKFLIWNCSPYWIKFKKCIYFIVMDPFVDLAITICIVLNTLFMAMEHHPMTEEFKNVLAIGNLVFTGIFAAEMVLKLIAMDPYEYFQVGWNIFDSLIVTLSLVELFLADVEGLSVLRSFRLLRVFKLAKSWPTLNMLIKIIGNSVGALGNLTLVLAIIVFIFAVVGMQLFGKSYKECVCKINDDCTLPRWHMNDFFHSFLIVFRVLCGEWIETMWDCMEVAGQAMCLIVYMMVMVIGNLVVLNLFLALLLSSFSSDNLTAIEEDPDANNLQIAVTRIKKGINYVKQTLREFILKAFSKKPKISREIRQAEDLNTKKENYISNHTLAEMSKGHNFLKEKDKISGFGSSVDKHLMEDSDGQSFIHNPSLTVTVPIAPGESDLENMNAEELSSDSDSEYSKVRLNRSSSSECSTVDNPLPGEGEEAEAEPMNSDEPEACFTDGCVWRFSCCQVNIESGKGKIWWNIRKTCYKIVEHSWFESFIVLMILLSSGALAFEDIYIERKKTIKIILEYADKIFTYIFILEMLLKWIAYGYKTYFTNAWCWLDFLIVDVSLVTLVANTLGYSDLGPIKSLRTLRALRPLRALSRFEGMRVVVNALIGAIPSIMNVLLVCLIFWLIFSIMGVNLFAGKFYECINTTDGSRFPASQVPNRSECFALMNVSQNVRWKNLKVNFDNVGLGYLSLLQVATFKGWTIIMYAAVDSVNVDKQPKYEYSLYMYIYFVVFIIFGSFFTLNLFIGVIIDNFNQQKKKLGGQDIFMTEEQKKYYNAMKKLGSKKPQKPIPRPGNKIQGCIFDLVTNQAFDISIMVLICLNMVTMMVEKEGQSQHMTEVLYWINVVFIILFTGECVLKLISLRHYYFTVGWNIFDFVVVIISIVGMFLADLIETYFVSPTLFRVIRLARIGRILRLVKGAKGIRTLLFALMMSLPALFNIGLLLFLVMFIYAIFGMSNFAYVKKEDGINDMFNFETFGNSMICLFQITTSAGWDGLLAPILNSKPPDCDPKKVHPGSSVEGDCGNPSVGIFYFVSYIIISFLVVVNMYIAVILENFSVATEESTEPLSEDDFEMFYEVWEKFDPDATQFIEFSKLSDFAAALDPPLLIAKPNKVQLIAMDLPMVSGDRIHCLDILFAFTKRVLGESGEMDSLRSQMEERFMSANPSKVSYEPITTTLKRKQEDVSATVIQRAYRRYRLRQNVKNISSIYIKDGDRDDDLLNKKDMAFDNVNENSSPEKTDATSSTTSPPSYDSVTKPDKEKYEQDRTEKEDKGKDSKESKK

[2] = target: Sodium channel protein type 5 subunit alpha (Homo sapiens, UniProt Q14524); test: Inhibition of human NaV1.5 at -140 mV holding potential by whole-cell patch clamp assay
Chain of Sodium channel protein type 5 subunit alpha (Q14524 whole entry): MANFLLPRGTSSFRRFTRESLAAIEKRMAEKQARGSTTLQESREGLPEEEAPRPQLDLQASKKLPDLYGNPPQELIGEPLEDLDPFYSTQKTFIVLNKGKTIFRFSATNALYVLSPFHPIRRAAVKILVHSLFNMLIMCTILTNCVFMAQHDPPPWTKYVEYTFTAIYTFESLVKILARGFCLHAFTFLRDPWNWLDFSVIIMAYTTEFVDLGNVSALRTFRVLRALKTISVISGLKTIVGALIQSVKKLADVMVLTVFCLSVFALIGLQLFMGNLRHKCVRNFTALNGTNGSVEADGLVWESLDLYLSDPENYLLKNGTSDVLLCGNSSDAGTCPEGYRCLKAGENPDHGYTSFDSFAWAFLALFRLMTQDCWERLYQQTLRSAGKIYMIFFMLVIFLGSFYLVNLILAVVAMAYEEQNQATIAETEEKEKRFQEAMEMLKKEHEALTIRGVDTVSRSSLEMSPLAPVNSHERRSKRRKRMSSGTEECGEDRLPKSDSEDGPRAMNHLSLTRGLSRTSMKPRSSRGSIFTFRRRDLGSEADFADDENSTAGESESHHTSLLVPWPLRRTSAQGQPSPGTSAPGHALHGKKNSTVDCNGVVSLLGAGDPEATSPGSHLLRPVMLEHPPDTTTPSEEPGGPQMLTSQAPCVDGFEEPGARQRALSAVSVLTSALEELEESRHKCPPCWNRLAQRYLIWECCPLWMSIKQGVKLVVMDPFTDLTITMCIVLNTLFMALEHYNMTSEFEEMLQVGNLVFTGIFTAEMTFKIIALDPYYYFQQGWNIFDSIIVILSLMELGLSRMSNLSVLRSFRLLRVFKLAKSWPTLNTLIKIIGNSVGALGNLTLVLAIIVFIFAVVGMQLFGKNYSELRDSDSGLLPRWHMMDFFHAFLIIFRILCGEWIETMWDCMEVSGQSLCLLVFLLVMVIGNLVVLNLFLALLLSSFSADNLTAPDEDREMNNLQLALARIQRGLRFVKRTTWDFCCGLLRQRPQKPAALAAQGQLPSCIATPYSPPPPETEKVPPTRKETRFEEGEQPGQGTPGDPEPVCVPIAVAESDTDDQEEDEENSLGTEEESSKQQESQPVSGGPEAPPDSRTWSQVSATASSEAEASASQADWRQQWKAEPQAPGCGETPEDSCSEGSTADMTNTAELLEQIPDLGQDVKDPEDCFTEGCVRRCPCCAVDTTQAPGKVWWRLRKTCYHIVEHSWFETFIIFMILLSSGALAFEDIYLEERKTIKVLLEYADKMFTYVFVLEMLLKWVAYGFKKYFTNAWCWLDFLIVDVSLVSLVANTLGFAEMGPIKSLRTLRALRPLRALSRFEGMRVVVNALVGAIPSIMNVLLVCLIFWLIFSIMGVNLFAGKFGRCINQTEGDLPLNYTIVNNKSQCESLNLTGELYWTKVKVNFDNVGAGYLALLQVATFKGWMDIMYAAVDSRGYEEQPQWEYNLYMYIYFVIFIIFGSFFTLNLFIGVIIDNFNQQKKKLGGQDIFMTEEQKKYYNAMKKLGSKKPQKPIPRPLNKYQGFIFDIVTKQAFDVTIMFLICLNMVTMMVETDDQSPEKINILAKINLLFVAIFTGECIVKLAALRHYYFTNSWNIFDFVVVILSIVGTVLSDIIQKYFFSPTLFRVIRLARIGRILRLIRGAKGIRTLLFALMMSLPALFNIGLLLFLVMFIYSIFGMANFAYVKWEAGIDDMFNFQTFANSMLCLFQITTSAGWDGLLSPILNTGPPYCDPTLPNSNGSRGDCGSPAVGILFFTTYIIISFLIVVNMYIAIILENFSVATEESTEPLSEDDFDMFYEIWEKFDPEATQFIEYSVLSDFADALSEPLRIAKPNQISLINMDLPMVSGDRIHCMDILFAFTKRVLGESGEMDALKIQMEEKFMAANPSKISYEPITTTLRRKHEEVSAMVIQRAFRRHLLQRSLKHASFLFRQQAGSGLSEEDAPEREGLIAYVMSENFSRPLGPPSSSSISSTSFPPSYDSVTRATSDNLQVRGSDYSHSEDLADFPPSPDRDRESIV

| Compound | IC50 [1] [µM] | IC50 [2] [µM] |
| --- | --- | --- |
| CC[C@H](C)[C@@H]1NC(=O)[C@@H]2CSSC[C@@H]3NC(=O)[C@H](C(C)C)NC(=O)[C@H](CC(C)C)NC(=O)[C@H](CC(N)=O)NC(=O)[C@@H]4CCCN4C(=O)[C@H](CCCNC(=N)N)NC(=O)[C@H](CSSC[C@H](NC(=O)[C@@H](N)CC(=O)O)C(=O)N[C@@H](CC(C)C)C(=O)NCC(=O)N[C@@H](Cc4ccccc4)C(=O)N[C@@H](CCSC)C(=O)N[C@@H](CCCNC(=N)N)C(=O)N[C@@H](CCCCN)C(=O)N2)NC(=O)[C@H](CSSC[C@@H](C(=O)N[C@@H](CCCCN)C(=O)N[C@@H](Cc2ccc(O)cc2)C(=O)N[C@H](C(=O)N[C@@H](Cc2ccccc2)C(N)=O)C(C)C)NC(=O)[C@H](Cc2c[nH]c4ccccc24)NC(=O)[C@H](CCCCN)NC(=O)[C@H](Cc2cnc[nH]2)NC(=O)[C@H]([C@@H](C)O)NC(=O)[C@H](CCCNC(=N)N)NC(=O)[C@H](CO)NC3=O)NC(=O)[C@H](C)NC(=O)[C@H](CC(=O)O)NC(=O)[C@H](CC(N)=O)NC(=O)[C@H](CC(=O)O)NC(=O)[C@@H]2CCCN2C1=O (H-DCLGFMRKCIPDNDACCRPNLVCSRTHKWCKYVF-NH2; disulfide 2-17, 9-23, 16-30) | 0.23 | > 5 |
| CC[C@H](C)[C@@H]1NC(=O)[C@@H]2CSSC[C@@H]3NC(=O)[C@H](C(C)C)NC(=O)[C@H](CC(C)C)NC(=O)[C@H](CC(N)=O)NC(=O)[C@@H]4CCCN4C(=O)[C@H](CCCNC(=N)N)NC(=O)[C@H](CSSC[C@H](NC(=O)[C@@H](N)CC(=O)O)C(=O)N[C@@H](CC(C)C)C(=O)NCC(=O)N[C@@H](Cc4ccccc4)C(=O)N[C@@H](Cc4cccc5ccccc45)C(=O)N[C@@H](CCCNC(=N)N)C(=O)N[C@@H](CCCCN)C(=O)N2)NC(=O)[C@H](CSSC[C@@H](C(=O)N[C@@H](CCCCN)C(=O)N[C@@H](Cc2ccc(O)cc2)C(=O)N[C@H](C(=O)N[C@@H](Cc2ccccc2)C(N)=O)C(C)C)NC(=O)[C@H](Cc2c[nH]c4ccccc24)NC(=O)[C@H](CCCCN)NC(=O)[C@H](Cc2cnc[nH]2)NC(=O)[C@H]([C@@H](C)O)NC(=O)[C@H](CCCNC(=N)N)NC(=O)[C@H](CO)NC3=O)NC(=O)[C@H](CCCCN)NC(=O)[C@H](CC(=O)O)NC(=O)[C@H](CC(N)=O)NC(=O)[C@H](CC(=O)O)NC(=O)[C@@H]2CCCN2C1=O | 0.004 | 0.4 |
| CC[C@H](C)[C@@H]1NC(=O)[C@@H]2CSSC[C@@H]3NC(=O)[C@H](C(C)C)NC(=O)[C@H](CC(C)C)NC(=O)[C@H](CC(N)=O)NC(=O)[C@@H]4CCCN4C(=O)[C@H](CCCNC(=N)N)NC(=O)[C@H](CSSC[C@H](NC(=O)[C@@H](N)CC(=O)O)C(=O)N[C@@H](CC(C)C)C(=O)NCC(=O)N[C@@H](Cc4ccccc4)C(=O)N[C@@H](CCSC)C(=O)N[C@@H](CCCNC(=N)N)C(=O)N[C@@H](CCCCN)C(=O)N2)NC(=O)[C@H](CSSC[C@@H](C(=O)N[C@@H](CCCCN)C(=O)N[C@@H](Cc2ccc(O)cc2)C(=O)N[C@H](C(=O)N[C@@H](Cc2ccccc2)C(N)=O)C(C)C)NC(=O)[C@H](Cc2c[nH]c4ccccc24)NC(=O)[C@H](CCCCN)NC(=O)[C@H](Cc2cnc[nH]2)NC(=O)[C@H](CC(C)C)NC(=O)[C@H](CCCNC(=N)N)NC(=O)[C@H](CO)NC3=O)NC(=O)[C@H](CCCCN)NC(=O)[C@H](CC(=O)O)NC(=O)[C@H](CC(N)=O)NC(=O)[C@H](CC(=O)O)NC(=O)[C@@H]2CCCN2C1=O (H-DCLGFMRKCIPDNDKCCRPNLVCSRLHKWCKYVF-NH2; disulfide 2-17, 9-23, 16-30) | 0.004 | 4.6 |
| CC[C@H](C)[C@@H]1NC(=O)[C@@H]2CSSC[C@@H]3NC(=O)[C@H](C(C)C)NC(=O)[C@H](CC(C)C)NC(=O)[C@H](CC(N)=O)NC(=O)[C@@H]4CCCN4C(=O)[C@H](CCCNC(=N)N)NC(=O)[C@H](CSSC[C@H](NC(=O)[C@@H](N)CC(=O)O)C(=O)N[C@@H](CC(C)C)C(=O)NCC(=O)N[C@@H](Cc4ccccc4)C(=O)N[C@@H](CCSC)C(=O)N[C@@H](CCCNC(=N)N)C(=O)N[C@@H](CCCCN)C(=O)N2)NC(=O)[C@H](CSSC[C@@H](C(=O)N[C@@H](CCCCN)C(=O)N[C@@H](Cc2ccc(O)cc2)C(=O)N[C@@H](C)C(=O)N[C@@H](Cc2ccccc2)C(N)=O)NC(=O)[C@H](Cc2c[nH]c4ccccc24)NC(=O)[C@H](CCCCN)NC(=O)[C@H](Cc2cnc[nH]2)NC(=O)[C@H]([C@@H](C)O)NC(=O)[C@H](CCCNC(=N)N)NC(=O)[C@H](CO)NC3=O)NC(=O)[C@H](CCCCN)NC(=O)[C@H](CC(=O)O)NC(=O)[C@H](CC(N)=O)NC(=O)[C@H](CC(=O)O)NC(=O)[C@@H]2CCCN2C1=O (H-DCLGFMRKCIPDNDKCCRPNLVCSRTHKWCKYAF-NH2; disulfide 2-17, 9-23, 16-30) | 0.17 | > 5 |
| CC[C@H](C)[C@@H]1NC(=O)[C@@H]2CSSC[C@@H]3NC(=O)[C@H](C(C)C)NC(=O)[C@H](CC(C)C)NC(=O)[C@H](CC(N)=O)NC(=O)[C@@H]4CCCN4C(=O)[C@H](CCCNC(=N)N)NC(=O)[C@H](CSSC[C@H](NC(=O)[C@@H](N)CC(=O)O)C(=O)N[C@@H](CC(C)C)C(=O)NCC(=O)N[C@@H](Cc4ccccc4)C(=O)N[C@@H](CCSC)C(=O)N[C@@H](CCCNC(=N)N)C(=O)N[C@@H](CCCCN)C(=O)N2)NC(=O)[C@H](CSSC[C@@H](C(=O)N[C@@H](CCCCN)C(=O)N[C@@H](Cc2ccc(O)cc2)C(=O)N[C@H](C(=O)N[C@@H](Cc2ccccc2)C(N)=O)C(C)C)NC(=O)[C@H](Cc2c[nH]c4ccccc24)NC(=O)[C@H](CCCCN)NC(=O)[C@H](Cc2cnc[nH]2)NC(=O)[C@H]([C@@H](C)O)NC(=O)[C@H](CCCNC(=N)N)NC(=O)[C@H](CO)NC3=O)NC(=O)[C@H](CCCCN)NC(=O)[C@H](CC(=O)O)NC(=O)[C@H](CC(N)=O)NC(=O)[C@H](CC(=O)O)NC(=O)[C@H](C)NC1=O (H-DCLGFMRKCIADNDKCCRPNLVCSRTHKWCKYVF-NH2; disulfide 2-17, 9-23, 16-30) | 0.17 | > 5 |
| CC[C@H](C)[C@@H]1NC(=O)[C@@H]2CSSC[C@@H]3NC(=O)[C@H](C(C)C)NC(=O)[C@H](CC(C)C)NC(=O)[C@H](CC(N)=O)NC(=O)[C@@H]4CCCN4C(=O)[C@H](CCCNC(=N)N)NC(=O)[C@H](CSSC[C@H](NC(=O)[C@@H](N)CC(=O)O)C(=O)N[C@@H](CC(C)C)C(=O)NCC(=O)N[C@@H](Cc4ccccc4)C(=O)N[C@@H](CCSC)C(=O)N[C@@H](CCCNC(=N)N)C(=O)N[C@@H](CCCCN)C(=O)N2)NC(=O)[C@H](CSSC[C@@H](C(=O)N[C@@H](CCCCN)C(=O)N[C@@H](Cc2ccc(O)cc2)C(=O)N[C@H](C(=O)N[C@@H](Cc2ccccc2)C(N)=O)C(C)C)NC(=O)[C@H](Cc2c[nH]c4ccccc24)NC(=O)[C@H](CCCCN)NC(=O)[C@H](Cc2cnc[nH]2)NC(=O)[C@H]([C@@H](C)O)NC(=O)[C@H](C)NC(=O)[C@H](CO)NC3=O)NC(=O)[C@H](CCCCN)NC(=O)[C@H](CC(=O)O)NC(=O)[C@H](CC(N)=O)NC(=O)[C@H](CC(=O)O)NC(=O)[C@@H]2CCCN2C1=O (H-DCLGFMRKCIPDNDKCCRPNLVCSATHKWCKYVF-NH2; disulfide 2-17, 9-23, 16-30) | 0.33 | > 5 |
